Experimental data: the NIST ThermoML archive (doi:10.1016/j.jct.2016.09.030)
± gives the expanded uncertainty stated by the source.

Assay: xn = mol fraction of the nth substance listed
Conditions: 100 kPa, Liquid; for viscosity: Concentric cylinders viscometry; for mass density: Vibrating tube method

CCOC(=O)CCC(=O)OCC [diethyl butanedioate] + CC(C)CO
Conditions | mass density, 288.15 K [kg/m3] | mass density, 293.15 K [kg/m3] | mass density, 298.15 K [kg/m3] | mass density, 303.15 K [kg/m3] | viscosity, 288.15 K [mPa·s] | viscosity, 293.15 K [mPa·s] | viscosity, 298.15 K [mPa·s] | viscosity, 303.15 K [mPa·s]
x1 = 0.0999 | 844.65 ± 1.6 | 840.5 ± 1.6 | 836.33 ± 1.6 | 832.13 ± 1.6 | 3.284 ± 0.027 | 2.816 ± 0.024 | 2.443 ± 0.021 | 2.135 ± 0.018
x1 = 0.2 | 878.53 ± 1.6 | 874.13 ± 1.6 | 869.73 ± 1.6 | 865.31 ± 1.6 | 2.763 ± 0.023 | 2.403 ± 0.021 | 2.108 ± 0.018 | 1.866 ± 0.016
x1 = 0.3001 | 908.28 ± 1.6 | 903.71 ± 1.6 | 899.12 ± 1.6 | 894.51 ± 1.6 | 2.542 ± 0.022 | 2.23 ± 0.019 | 1.973 ± 0.017 | 1.756 ± 0.016
x1 = 0.4 | 934.67 ± 1.6 | 929.94 ± 1.6 | 925.2 ± 1.6 | 920.45 ± 1.6 | 2.473 ± 0.022 | 2.177 ± 0.019 | 1.931 ± 0.017 | 1.73 ± 0.016
x1 = 0.4999 | 958.02 ± 1.6 | 953.16 ± 1.6 | 948.31 ± 1.6 | 943.44 ± 1.6 | 2.477 ± 0.022 | 2.186 ± 0.019 | 1.947 ± 0.018 | 1.747 ± 0.016
x1 = 0.5999 | 978.97 ± 1.6 | 974.02 ± 1.6 | 969.07 ± 1.6 | 964.11 ± 1.6 | 2.546 ± 0.023 | 2.249 ± 0.02 | 2.004 ± 0.018 | 1.802 ± 0.017
x1 = 0.6999 | 997.81 ± 1.6 | 992.78 ± 1.6 | 987.75 ± 1.6 | 982.72 ± 1.6 | 2.625 ± 0.024 | 2.32 ± 0.021 | 2.073 ± 0.019 | 1.864 ± 0.017
x1 = 0.8 | 1014.88 ± 1.6 | 1009.79 ± 1.6 | 1004.7 ± 1.6 | 999.6 ± 1.6 | 2.774 ± 0.025 | 2.45 ± 0.023 | 2.184 ± 0.02 | 1.964 ± 0.018
x1 = 0.9 | 1030.48 ± 1.6 | 1025.33 ± 1.6 | 1020.18 ± 1.6 | 1015.04 ± 1.6 | 2.962 ± 0.028 | 2.611 ± 0.025 | 2.322 ± 0.022 | 2.084 ± 0.02
x1 = 1 | 1044.83 ± 1.6 | 1039.63 ± 1.6 | 1034.44 ± 1.6 | 1029.25 ± 1.6 | 3.195 ± 0.03 | 2.807 ± 0.027 | 2.491 ± 0.024 | 2.229 ± 0.022
